Test results reported in patent US20030203819A1, “Synergistically acting herbicidal mixtures” (priority 1998, published 2003).
Like-named read-outs stand apart in the source and are kept apart here.

Legend:
Format in all cases: in vivo
Triticum aestivum = assay: Phytotoxicity to crop plant in the greenhouse (post-emergence treatment)
Description: (§1) The mixtures according to the invention were applied pre- or post-emergence (foliar treatment). The herbicidal compounds of component B were applied in the formulation in which they are present as commercially available product.
(§2) Some of the experiments were greenhouse experiments and some were field trials on mini plots (on a site with sandy loam (pH 6.2 to 7.0) or sandy clay (pH 5.0 to 6.7) as the soil).
(§3) The herbicidally active compounds of components A) and B) were applied in succession or jointly, in the latter case in some cases as a tank mix and in some cases as a readymix, in the form of emulsions, aqueous solutions or suspensions, the vehicle being water ([…]). In the case of the field trials, application was effected with the aid of a mobile plot sprayer.
(§4) The test period extended over 3 to 8 weeks, and the stands were also observed at later points in time.
(§5) Damage by the herbicidal compositions was evaluated with reference to a scale of 0% to 100% in comparison with untreated control plots. 0 means no damage and 100 means complete destruction of the plants.
(§6) In these examples, the value E at which only an additive effect of the individual active ingredients is to be expected was calculated by the method of S. R. Colby (Calculating synergistic and antagonistic responses of herbicide combinations, Weeds 15, 20 pp (1967).

Abutilon theophrasti [1] = assay: Herbicidal action in the field (post-emergence treatment)
Description: as §1, §2
(§7) The harmful plants differed with regard to size and developmental state; on average, they were 5 to 20 cm long, depending on the growth habit.
as §3, §4, §5, §6

Alopecurus myosuroides [2] = assay: as above
Description: as §1, §2, §7, §3, §4, §5, §6

Anthemis mixta = assay: as above; settings: Ia.3 75 g/ha a.s.
Description: as §1, §2, §7, §3, §4, §5, §6

Bidens pilosa = assay: as above
Description: as §1, §2, §7, §3, §4, §5, §6

Brachiaria plantaginea = assay: as above; settings: Ia.3 75 g/ha a.s.
Description: as §1, §2, §7, §3, §4, §5, §6

Chenopodium album = assay: as above; settings: Ia.3 50 g/ha a.s.
Description: as §1, §2, §7, §3, §4, §5, §6

Cyperus species = assay: as above
Description: as §1, §2, §7, §3, §4, §5, §6

Digitaria adscendens = assay: as above
Description: as §1, §2, §7, §3, §4, §5, §6

Digitaria sanguinalis [3] = assay: as above; settings: Ia.3 50 g/ha a.s.
Description: as §1, §2, §7, §3, §4, §5, §6

Echinochloa crus-galli [4] = assay: as above; settings: Ia.3 75 g/ha a.s.
Description: as §1, §2, §7, §3, §4, §5, §6

Galium aparine = assay: as above
Description: as §1, §2, §7, §3, §4, §5, §6

Geranium carolinianum = assay: as above; settings: Ia.3 150 g/ha a.s.
Description: as §1, §2, §7, §3, §4, §5, §6

Ipomoea acuminata = assay: as above
Description: as §1, §2, §7, §3, §4, §5, §6

[5] = test system: Ipomoea purpurea var. diversifolia; assay: as above
Description: as §1, §2, §7, §3, §4, §5, §6

Lolium perenne = assay: as above; settings: Ia.3 75 g/ha a.s.
Description: as §1, §2, §7, §3, §4, §5, §6

Phalaris spec. = assay: as above; settings: Ia.3 75 g/ha a.s.
Description: as §1, §2, §7, §3, §4, §5, §6

Richardia brasiliensis = assay: as above; settings: Ia.3 75 g/ha a.s.
Description: as §1, §2, §7, §3, §4, §5, §6

Setaria faberi [6] = assay: as above
Description: as §1, §2, §7, §3, §4, §5, §6

Setaria viridis [7] = assay: as above; settings: Ia.3 100 g/ha a.s.
Description: as §1, §2, §7, §3, §4, §5, §6

Sorghum bicolor = assay: as above
Description: as §1, §2, §7, §3, §4, §5, §6

Stellaria media = assay: as above
Description: as §1, §2, §7, §3, §4, §5, §6

Abutilon theophrasti [8] = assay: Herbicidal action in the greenhouse (post-emergence treatment)
Description: as §1, §2, §7, §3, §4, §5, §6

Amaranthus retroflexus [9] = assay: as above; settings: Amaranthus retroflexus, post-emergence
Description: as §1, §2, §7, §3, §4, §5, §6

Ipomoea ssp. = assay: as above
Description: as §1, §2, §7, §3, §4, §5, §6

Setaria viridis [10] = assay: as above; settings: Ia.3 15.6 g/ha a.s.
Description: as §1, §2, §7, §3, §4, §5, §6

Veronica ssp. = assay: as above
Description: as §1, §2, §7, §3, §4, §5, §6

Amaranthus retroflexus [11] = assay: Herbicidal action in the greenhouse (pre-emergence treatment); settings: Ia.3 31.2 g/ha a.s.
Description: as §1, §2, §7, §3, §4, §5, §6

Cyperus iria = assay: as above; settings: Ia.3 31.2 g/ha a.s.
Description: as §1, §2, §7, §3, §4, §5, §6

Digitaria sanguinalis [12] = assay: as above
Description: as §1, §2, §7, §3, §4, §5, §6

Echinochloa crus-galli [13] = assay: as above; settings: Ia.3 62.5 g/ha a.s.
Description: as §1, §2, §7, §3, §4, §5, §6

Setaria viridis [14] = assay: as above; settings: Ia.3 15.6 g/ha a.s.
Description: as §1, §2, §7, §3, §4, §5, §6

Ipomoea lacunosa = assay: Herbicidal action in the field (post-emergence treatment); settings: Ia.33 75 g/ha a.s.
Description: as §1, §2, §7, §3, §4, §5, §6

Panicum miliaceum = assay: as above; settings: Ia.33 50 g/ha a.s.
Description: as §1, §2, §7, §3, §4, §5, §6

Sorghum halepense = assay: as above; settings: for Damage (%): Sorghum halepense, field, post-emergence, Ia.33 75 g/ha a.s.
Description: as §1, §2, §7, §3, §4, §5, §6

Alopecurus myosuroides [15] = assay: Herbicidal action in the greenhouse (post-emergence treatment)
Description: as §1, §2, §7, §3, §4, §5, §6

Echinochloa crus-galli [16] = assay: as above
Description: as §1, §2, §7, §3, §4, §5, §6

Setaria faberi [17] = assay: as above; settings: Ia.33 7.8 g/ha a.s.
Description: as §1, §2, §7, §3, §4, §5, §6

Zea mays = assay: Phytotoxicity to crop plant in the greenhouse (post-emergence treatment); settings: Table 84, Ia.33 62.5 g/ha a.s.
Description: as §1, §2, §3, §4, §5, §6

`COCC(C)N(C(=O)CCl)c1c(C)csc1C` (stereo not shown) [Dimethenamide] was tested, and the “Phytotoxicity (%)” value (Triticum aestivum; Table 83, Dimethenamide 500 g/ha a.s.) was 0%.
`Cn1ncc(C(=O)c2ccc(S(C)(=O)=O)c(C3=NOCC3)c2Cl)c1O` [Ia.3, 4-[2-chloro-3-(4,5-dihydroisoxazol-3-yl)-4-methylsulfonylbenzoyl]-1-methyl-5-hydroxy-1H-pyrazole] gave a Damage (Abutilon theophrasti [1]; Ia.3 50 g/ha a.s. (Table 5)) of 85%, a Damage (Abutilon theophrasti [1]; Ia.3 75 g/ha a.s. (Table 66)) of 85% and a Damage (Alopecurus myosuroides [2]; Ia.3 7.5 g/ha a.s. (Table 7)) of 10%. The Damage (Alopecurus myosuroides [2]; Ia.3 75 g/ha a.s. (Table 8)) was 10%, the Damage (Anthemis mixta) was 68% and the Damage (Bidens pilosa; Ia.3 75 g/ha a.s. (Table 13)) was 30%. The Damage (Bidens pilosa; Ia.3 75 g/ha a.s. (Table 58)) was 25%, the Damage (Bidens pilosa; Ia.3 75 g/ha a.s. (Table 69)) was 25% and the Damage (Brachiaria plantaginea) was 96%. The “Damage (%)” value (Brachiaria plantaginea; Table 80, Brachiaria plantaginea, field, post-emergence) was 95%, the Damage (Chenopodium album) was 92% and the Damage (Cyperus species; Ia.3 75 g/ha a.s. (Table 70)) was 5%. For the same compound, the Damage (Cyperus species; Ia.3 75 g/ha a.s. (Table 71)) was 0%, the Damage (Digitaria adscendens; Ia.3 75 g/ha a.s. (Table 33)) was 90% and the Damage (Digitaria adscendens; Ia.3 75 g/ha a.s. (Table 37)) was 90%. The Damage (Digitaria sanguinalis [3]) was 57%, the Damage (Echinochloa crus-galli [4]) was 98% and the Damage (Galium aparine; Ia.3 75 g/ha a.s. (Table 9)) was 63%. It also gave a Damage (Galium aparine; Ia.3 75 g/ha a.s. (Table 54)) of 60%, a Damage (Galium aparine; Ia.3 75 g/ha a.s. (Table 64)) of 60% and a Damage (Geranium carolinianum) of 30%. It also gave a Damage (Ipomoea acuminata; Ia.3 75 g/ha a.s. (Table 15)) of 25%, a Damage (Ipomoea acuminata; Ia.3 75 g/ha a.s. (Table 29)) of 25% and a Damage (Ipomoea acuminata; Ia.3 75 g/ha a.s. (Table 35)) of 25%. It also gave a Damage (Ipomoea acuminata; Ia.3 75 g/ha a.s. (Table 76)) of 23%, a Damage ([5]; Ia.3 75 g/ha a.s. (Table 16)) of 93% and a Damage ([5]; Ia.3 75 g/ha a.s. (Table 65)) of 94%. For the same compound, the Damage (Lolium perenne) was 10%, the Damage (Phalaris spec.) was 20% and the Damage (Richardia brasiliensis) was 70%. For the same compound, the Damage (Setaria faberi [6]; Ia.3 75 g/ha a.s. (Table 59)) was 99%, the Damage (Setaria faberi [6]; Ia.3 75 g/ha a.s. (Table 67)) was 95% and the Damage (Setaria viridis [7]) was 75%. It also gave a Damage (Sorghum bicolor; Ia.3 (title: Ia.33) 75 g/ha a.s. (Table 68)) of 78%, a Damage (Stellaria media; Ia.3 75 g/ha a.s. (Table 14)) of 91% and a Damage (Stellaria media; Ia.3 75 g/ha a.s. (Table 63)) of 91%. For the same compound, the Damage (Abutilon theophrasti [8]; Ia.3 15.6 g/ha a.s.) was 70%, the pest or weed control at 15.6 g/ha (Amaranthus retroflexus [9]; read-out: Damage, Ia.3 15.6 g/ha a.s. (Table 10)) was 80% and the pest or weed control at 15.6 g/ha (Amaranthus retroflexus [9]; read-out: Damage, Ia.3 15.6 g/ha a.s. (Table 25)) was 55%. The Damage (Ipomoea ssp.; Ia.3 31.2 g/ha a.s. (Table 27)) was 75%, the Damage (Ipomoea ssp.; Ia.3 31.2 g/ha a.s. (Table 74)) was 75% and the Damage (Setaria viridis [10]) was 80%. It also gave a Damage (Veronica ssp.; Ia.3 31.2 g/ha a.s.) of 80%, a Damage (Amaranthus retroflexus [11]) of 40% and a Damage (Cyperus iria) of 50%. The Damage (Digitaria sanguinalis [12]; Ia.3 62.5 g/ha a.s. (Table 40)) was 60%, the Damage (Digitaria sanguinalis [12]; Ia.3 62.5 g/ha a.s. (Table 47)) was 60% and the Damage (Echinochloa crus-galli [13]) was 60%. The Damage (Setaria viridis [14]) was 20%.
With `Cc1c(C(=O)c2cnn(C)c2O)ccc(S(C)(=O)=O)c1C1=NOCC1` [Ia.33, 4-[2-methyl-3-(4,5-dihydroisoxazol-3-yl)-4-methylsulfonylbenzoyl]-1-methyl-5-hydroxy-1H-pyrazole] the Damage (Galium aparine; Ia.33 1.9 g/ha a.s.) was 20%, the Damage (Ipomoea lacunosa) was 69% and the “Damage (%)” value (Ipomoea lacunosa; Table 81, Ipomoea lacunosa, field, post-emergence) was 69%. The Damage (Panicum miliaceum) was 87%, the Damage (Setaria faberi [6]; Ia.33 75 g/ha a.s.) was 65% and the “Damage (%)” value (Setaria faberi [6]; Table 82, Setaria faberi, field, post-emergence, Ia.33 75 g/ha a.s.) was 65%. For the same compound, the Damage (Sorghum bicolor; Ia.33 75 g/ha a.s. (Table 73)) was 78%, the Damage (Sorghum halepense; Ia.33 75 g/ha a.s. (Table 32)) was 78% and the Damage (Sorghum halepense; Ia.33 75 g/ha a.s. (Table 42)) was 78%. For the same compound, the “Damage (%)” value (Sorghum halepense; Table 78) was 78%, the “Damage (%)” value (Sorghum halepense; Table 79) was 78% and the Damage (Abutilon theophrasti [8]; Ia.33 7.8 g/ha a.s.) was 90%. It also gave a Damage (Alopecurus myosuroides [15]; Ia.33 15.6 g/ha a.s.) of 40%, a Damage (Alopecurus myosuroides [15]; Ia.33 62.5 g/ha a.s. (Table 19)) of 40% and a Damage (Alopecurus myosuroides [15]; Ia.33 62.5 g/ha a.s. (Table 62)) of 40%. The pest or weed control at 1.9 g/ha (Amaranthus retroflexus [9]; read-out: Damage, Ia.33 1.9 g/ha a.s.) was 30%, the pest or weed control at 7.8 g/ha (Amaranthus retroflexus [9]; read-out: Damage, Ia.33 7.8 g/ha a.s.) was 70% and the Damage (Echinochloa crus-galli [16]; Ia.33 1.9 g/ha a.s.) was 55%. For the same compound, the Damage (Echinochloa crus-galli [16]; Ia.33 15.6 g/ha a.s.) was 90%, the Damage (Ipomoea ssp.; Ia.33 3.9 g/ha a.s.) was 50% and the Damage (Ipomoea ssp.; Ia.33 62.5 g/ha a.s.) was 80%. The Damage (Setaria faberi [17]) was 90%, the Damage (Veronica ssp.; Ia.33 15.6 g/ha a.s.) was 60% and the Damage (Veronica ssp.; Ia.33 62.5 g/ha a.s. (Table 18)) was 20%. The Damage (Veronica ssp.; Ia.33 62.5 g/ha a.s. (Table 51)) was 80% and the “Phytotoxicity (%)” value (Zea mays) was 0%.
In the case of `Cc1cc(-c2c(S(C)(=O)=O)ccc(C(=O)c3cnn(C)c3O)c2Cl)on1` [Ia.52, 4-[2-chloro-3-(3-methyl-isoxazol-5-yl)-4-methylsulfonylbenzoyl]-1-methyl-5-hydroxy-1H-pyrazole], the pest or weed control at 62.5 g/ha (Amaranthus retroflexus [9]; read-out: Damage, Ia.52 62.5 g/ha a.s.) is reported as 75%, the Damage (Veronica ssp.; Ia.52 15.6 g/ha a.s.) is reported as 40% and the “Phytotoxicity (%)” value (Triticum aestivum; Table 83, Ia.52 62.5 g/ha a.s.) is reported as 0%.
